Test system: deep retinal vascular network formation in neonatal Balb/C mice
Assay: Neonatal mouse retinal angiogenesis model
Type: in vivo
Excerpt: Description of the Model. Immediately after birth (postnatal day zero; “P0”), retinal vasculature is virtually absent in the mouse. By four weeks after birth (P28) the retina has attained an adult pattern of retinal vessels coincident with the onset of vision. Physiological neovascularization of the retina occurs during this period via a stereotypical, biphasic developmental pattern of angiogenesis. During the primary phase of retinal vascular development, spoke-like peripapillary vessels grow radially from the central retinal artery and vein, becoming progressively interconnected by a capillary plexus that forms between them. This “inner retinal plexus” grows in area, volume and complexity, centrifugally, as a monolayer within the nerve fiber layer during the first seven to ten days following birth.
The second phase of retinal vessel formation begins between postnatal days 7 (P7) and 10 (P10) when collateral branches sprout from capillaries of the superficial plexus and penetrate into the retina where their tips branch and anastamose laterally to form a planar “deep vascular plexus”. While the deep vascular plexus is in place by P14, it undergoes extensive remodeling from P14 to P21. It is of interest to note that the formation of these vascular networks in the neonatal mouse are strikingly similar to the events occurring in the third trimester human fetus.
Advantages and Quantification of the Model. The reproducibility of the murine retinal development process and its easy accessibility in neonatal animals provide an opportunity to assess the efficacy of antiangiogenic compounds in a physiologically relevant model of angiogenesis. Additional advantages of the neonatal mouse model are the ability to qualitatively and quantitatively evaluate the angiostatic effect of putative antagonists of angiogenesis. Angiostatic activity was evaluated based upon the degree of angiogenesis in the deep, outer retinal vascular layer (secondary layer) that develops between P8 and P12. The appearance of the inner blood vessel network (primary layer) was evaluated for normal development and signs of toxicity.
Preparation of Compositions. Peptidomimetic integrin signaling inhibitor Compound (1) is solubilized in PBS at a concentration of about 20 mg/ml in PBS (1× concentration). T2-TrpRS is solubilized in PBS at a concentration of about 0.5 mg/ml (1× concentration). VEGF aptamer (pegaptanib sodium; Compound (2)) is solubilized in PBS at a concentration of about 2 mg/ml (1× concentration) to achieve an injection of approximately 1 μg/eye at 1× concentration. For all combination assays the compounds were prepared at 2 or 3 times the 1× concentration of each material and then combined to produce a final solution containing each individual compound at the same concentration as was used alone (e.g., 1×, 0.5×, 0.25× or 0.1×, as the case may be). For all assays, a single injection of 0.5 μl of PBS solutions of the drugs was administered intravitreally regardless of the number of compounds being injected. As used herein, the term “0.1×” refers to one tenth of the 1× concentration of a given material, “0.25×” refers to one quarter of the 1× concentration of a given material, “0.5×” refers to one half of the 1× concentration of a given material, and so forth for similar designations.
An in vivo angiogenesis assay in the neonatal mouse (Balb/C, The Jackson Laboratory, Bar Harbor, Me.) was used to evaluate the angiostatic activity of integrin signaling inhibitor Compound (1), T2-TrpRS, and VEGF aptamer Compound (2). Intravitreous injection and retina isolation was performed with a dissecting microscope (SMZ 645, Nikon, Japan). […] The samples (0.5 μl) were injected with a Hamilton syringe fitted with a 32-gauge needle (Hamilton Company, Reno, Nev.). The injection was made between the equator and the corneal limbus. During injection, the location of the needle tip was monitored by direct visualization to determine that it was in the vitreal cavity. […]

[1] = Ex 1, 0.5× (1×=2 mg/ml), intravitreal P8, read P12
[2] = Ex 2, 0.1× of each (1×: T2-TrpRS 0.5, Comp. (2) 2 mg/ml), intravitreal P4, read P12
[3] = Ex 3, 1× of each (T2-TrpRS 0.5, Comp. (2) 2 mg/ml), intravitreal P4, read P12
[4] = Ex 4, 0.5× (1×=2 mg/ml), intravitreal P4, read P12
[5] = Ex 6, 1× of each (T2-TrpRS 0.5, Comp. (2) 2 mg/ml), intravitreal P4, read P12
[6] = Ex 7, 1× (T2-TrpRS 0.5, Comp. (2) 2 mg/ml), intravitreal P4, read P12
[7] = Ex 8, 0.25× (1×=2 mg/ml), intravitreal P4, read P12
[8] = Ex 9, 1× of each (Comp. (1) 20, Comp. (2) 2, T2-TrpRS 0.5 mg/ml), intravitreal P4, read P12
[9] = Table 12, composite data from the Examples, 1× (Compound (2) 0.5× to 1×)
[10] = Table 13A, 1-2 μg per eye, intravitreal P7, read P12
[11] = Table 13C low dosing, 0.1x (integrin ant. 1.0 μg, VEGF apt. 0.20 μg, T2-TrpRS 0.025 μg)

Substance: pegaptanib sodium [Compound (2)]
- inhibition of neovascularization (0.1× concentrations (1 μg/eye integrin antagonist, 0.2 μg/eye VEGF aptamer, 0.025 μg/eye T2-TrpRS)): negligible
- % of eyes with 0-10% inhibition of deep vascular layer [1]: 20%
- % of eyes with 10-25% inhibition of deep vascular layer [1]: 20%
- % of eyes with 25-50% inhibition of deep vascular layer [1]: 20%
- % of eyes with 50-75% inhibition of deep vascular layer [1]: 20%
- % of eyes with 75-100% inhibition of deep vascular layer [1]: 40%
- % of eyes with 0-10% inhibition of deep vascular layer [2]: 87.5%
- % of eyes with 10-25% inhibition of deep vascular layer [2]: 12.5%
- % of eyes with 25-50% inhibition of deep vascular layer [2]: 0%
- % of eyes with 50-75% inhibition of deep vascular layer [2]: 0%
- % of eyes with 75-100% inhibition of deep vascular layer [2]: 0%
- % of eyes with 100% inhibition of deep vascular layer [2]: 0%
- % of eyes with >95% inhibition of deep vascular layer [2]: 0%
- % of eyes with 0-10% inhibition of deep vascular layer [3]: 37.5%
- % of eyes with 10-25% inhibition of deep vascular layer [3]: 12.5%
- % of eyes with 25-50% inhibition of deep vascular layer [3]: 12.5%
- % of eyes with 50-75% inhibition of deep vascular layer [3]: 12.5%
- % of eyes with 75-100% inhibition of deep vascular layer [3]: 25%
- % of eyes with 100% inhibition of deep vascular layer [3]: 0%
- % of eyes with >95% inhibition of deep vascular layer [3]: 0%
- % of eyes with 0-10% inhibition of deep vascular layer [4]: 60%
- % of eyes with 10-25% inhibition of deep vascular layer [4]: 30%
- % of eyes with 25-50% inhibition of deep vascular layer [4]: 0%
- % of eyes with 50-75% inhibition of deep vascular layer [4]: 0%
- % of eyes with 75-100% inhibition of deep vascular layer [4]: 10%
- % of eyes with 100% inhibition of deep vascular layer [4]: 0%
- % of eyes with >95% inhibition of deep vascular layer [4]: 0%
- % of eyes with 0-10% inhibition of deep vascular layer [5]: 37.5%
- % of eyes with 10-25% inhibition of deep vascular layer [5]: 25%
- % of eyes with 25-50% inhibition of deep vascular layer [5]: 12.5%
- % of eyes with 50-75% inhibition of deep vascular layer [5]: 25%
- % of eyes with 75-100% inhibition of deep vascular layer [5]: 0%
- % of eyes with 100% inhibition of deep vascular layer [5]: 0%
- % of eyes with >95% inhibition of deep vascular layer [5]: 0%
- % of eyes with 0-10% inhibition of deep vascular layer [6]: 25%
- % of eyes with 10-25% inhibition of deep vascular layer [6]: 25%
- % of eyes with 25-50% inhibition of deep vascular layer [6]: 0%
- % of eyes with 50-75% inhibition of deep vascular layer [6]: 12.5%
- % of eyes with 75-100% inhibition of deep vascular layer [6]: 37.5%
- % of eyes with 100% inhibition of deep vascular layer [6]: 0%
- % of eyes with >95% inhibition of deep vascular layer [6]: 0%
- % of eyes with 0-10% inhibition of deep vascular layer [7]: 54.5%
- % of eyes with 10-25% inhibition of deep vascular layer [7]: 36.4%
- % of eyes with 25-50% inhibition of deep vascular layer [7]: 0%
- % of eyes with 50-75% inhibition of deep vascular layer [7]: 0%
- % of eyes with 75-100% inhibition of deep vascular layer [7]: 9.1%
- % of eyes with 100% inhibition of deep vascular layer [7]: 0%
- % of eyes with >95% inhibition of deep vascular layer [7]: 0%
- % of eyes with 0-10% inhibition of deep vascular layer [8]: 25%
- % of eyes with 10-25% inhibition of deep vascular layer [8]: 0%
- % of eyes with 25-50% inhibition of deep vascular layer [8]: 12.5%
- % of eyes with 50-75% inhibition of deep vascular layer [8]: 12.5%
- % of eyes with 75-100% inhibition of deep vascular layer [8]: 50%
- % of eyes with 100% inhibition of deep vascular layer [8]: 12.5%
- % of eyes with >95% inhibition of deep vascular layer [8]: 25%
- % of mice with 0-10% inhibition of deep vascular layer [9]: 39.1%
- % of mice with 10-25% inhibition of deep vascular layer [9]: 20%
- % of mice with 25-50% inhibition of deep vascular layer [9]: 7.6%
- % of mice with 50-75% inhibition of deep vascular layer [9]: 11.9%
- % of mice with 75-100% inhibition of deep vascular layer [9]: 21.4%
- % of mice with 100% inhibition of deep vascular layer [9]: 2.4%
- % of mice with >95% inhibition of deep vascular layer [9]: 4.7%
- Percentage of retinas with 0-10% neovascular inhibition [10]: 39.1%
- Percentage of retinas with 10-25% neovascular inhibition [10]: 20.0%
- Percentage of retinas with 25-50% neovascular inhibition [10]: 7.6%
- Percentage of retinas with 50-75% neovascular inhibition [10]: 11.9%
- Percentage of retinas with 100% neovascular inhibition [10]: 2.4%
- Percentage of retinas with >75% neovascular inhibition [10]: 21.4%
- Percentage of retinas with >90% neovascular inhibition [10]: 4.7%
- Percentage of retinas with 0-10% neovascular inhibition [11]: 75%
- Percentage of retinas with 10-25% neovascular inhibition [11]: 25%
- Percentage of retinas with 25-50% neovascular inhibition [11]: 0%
- Percentage of retinas with 50-75% neovascular inhibition [11]: 0%
- Percentage of retinas with 100% neovascular inhibition [11]: 0%
- Percentage of retinas with >75% neovascular inhibition [11]: 0%
- Percentage of retinas with >90% neovascular inhibition [11]: 0%
- retinas that exhibited over 75% inhibition (monotherapy at optimal dose): 21%
- retinas unaffected by injection (monotherapy at the maximum individual dose): around 35%

— US7528106B2, “Compositions and methods for treatment of neovascular diseases” (The Scripps Research Institute, priority 2004, dated 2009)
